Data: US20080119508A1, “Multi-Route Administration Of Immune Response Modifier Compounds” (3M INNOVATIVE PROPERTIES COMPANY, priority 2004, published 2008)

Tested on: mouse colon carcinoma-26 cells (MC26) expressing luciferase
Assay: MC26-luciferase intradermal tumor model, in vivo photon counts (tumor growth index)
Design: species or system Balb/c mice
Details: combination of topical 5% IRM1 (30 microliters at tumor site) and subcutaneous IRM1 10 mg/kg, compared with single routes and vehicles; day 6 results in FIG. 1
Method: Mice were divided into five groups: topical vehicle, subcutaneous vehicle (SQ vehicle), IRM1 topical (topical IRM1), IRM1 subcutaneous (SQ IRM1), and IRM1 topical and subcutaneous (topical+SQ IRM1). Eighteen hours after injection of the cells, 30 microliters of vehicle or 5% IRM1 topical formulations, described in Table 3, was applied to the tumor site. Six hours later, mice were injected subcutaneously with 10 millograms per kilogram of IRM1 in a 1 milligram per milliliter IRM1, 0.03M citrate buffered saline solution or a vehicle 0.03M citrate buffered saline solution. On days 1, 5, and 6 mice were anesthetized with vaporized 3% isoflurane and in vivo photon counts of luciferin were measured using a Xenogen IVIS imaging system (Alameda, Calif.) following the manufacturer's protocol. The tumor growth index for each treatment group was calculated by dividing each group's day 5 or day 6 tumor photon counts by their day 1 tumor photon counts.

Compound: CCc1nc2c(N)nc3ccccc3c2n1CCCCNS(C)(=O)=O [IRM1, N-[4-(4-amino-2-ethyl-1H-imidazo[4,5-c]quinolin-1-yl)butyl]methanesulfonamide]
- tumor growth index (day 5 or day 6 tumor photon counts divided by day 1 tumor photon counts): surprising benefit
